Results taken from PubChem BioAssay AID1033 (Sanford-Burnham Center for Chemical Genomics, 2008).
Active and inactive are the calls of the source. The rule behind the calls is not given here.

The molecules below were run against Chaperone protein DnaK (Escherichia coli (strain K12)) (UniProt P0A6Y8) (assay: E. coli DnaK SBD ligand binding – biophysical, NMR, chaperone (AID 1033)). Conditions: Purified DnaK SBD.
Chaperone protein DnaK (Escherichia coli (strain K12)), sequence (P0A6Y8 whole entry, looked up): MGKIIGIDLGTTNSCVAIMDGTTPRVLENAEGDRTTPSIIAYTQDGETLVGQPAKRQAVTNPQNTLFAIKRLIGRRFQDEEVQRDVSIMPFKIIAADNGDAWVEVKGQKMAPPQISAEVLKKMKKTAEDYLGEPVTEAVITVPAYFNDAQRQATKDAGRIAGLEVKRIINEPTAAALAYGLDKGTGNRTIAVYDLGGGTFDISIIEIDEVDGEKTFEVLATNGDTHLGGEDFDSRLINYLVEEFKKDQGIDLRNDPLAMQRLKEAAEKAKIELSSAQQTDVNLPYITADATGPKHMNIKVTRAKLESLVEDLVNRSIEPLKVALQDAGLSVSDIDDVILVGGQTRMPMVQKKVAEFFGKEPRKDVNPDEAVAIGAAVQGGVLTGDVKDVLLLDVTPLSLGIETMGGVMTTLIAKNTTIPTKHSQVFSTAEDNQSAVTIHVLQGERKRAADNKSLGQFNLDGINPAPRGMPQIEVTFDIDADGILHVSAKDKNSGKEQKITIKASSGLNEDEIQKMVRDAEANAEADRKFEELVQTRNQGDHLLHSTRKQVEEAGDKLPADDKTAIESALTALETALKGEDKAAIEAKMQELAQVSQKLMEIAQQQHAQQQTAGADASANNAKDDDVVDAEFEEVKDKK
For `O=C(O)CNC(=O)c1ccccc1`, the Kd was > 4 mM (inactive). In the case of `COc1cc(C(C)=O)ccc1OC(=O)N1CCOCC1`, the Kd is reported as > 4 mM (inactive). With `COC(=O)CC1NC2CCCCC2NC1=O` (stereo unspecified) the Kd was > 4 mM (inactive). `CC[C@H]1CN2CCc3cc(OC)c(OC)cc3C2C[C@@H]1CC1NCCc2cc(OC)c(OC)cc21` (stereo partly specified) was tested, and the Kd was > 4 mM (inactive). `NCc1ccc(-c2cccs2)s1` was tested, and the Kd was > 4 mM (inactive). For `CN(C)C(=O)CSc1nc2ccccc2c(=O)[nH]1`, the Kd was > 4 mM (inactive). `O=C(O)c1cccc2nsnc12` was tested, and the Kd was > 4 mM (inactive). With `CC(=O)Nc1cc2c(cc1C(=O)C(C)C)OCCO2` the Kd was > 4 mM (inactive). With `NC(=O)c1ccc(C(N)=O)cc1` the Kd was > 4 mM (inactive). In the case of `CCn1nnnc1Oc1ccc(Cl)cc1`, the Kd is reported as > 4 mM (inactive). For `CC(C)=CCCC1(C)C=Cc2c(O)c3c(c(CC=C(C)C)c2O1)OC12C(=CC4CC1C(C)(C)OC2(C/C=C(/C)C(=O)O)C4=O)C3=O` (stereo unspecified), the Kd was > 4 mM (inactive). With `COC(=O)CCSCC(=O)Nc1nnc(C)s1` the Kd was > 4 mM (inactive). With `O=C(O)c1ccc(-c2cnco2)cc1` the Kd was > 4 mM (inactive). In the case of `Cc1cc(/C=N/O)nc(=O)[nH]1`, the Kd is reported as > 4 mM (inactive). For `Cc1ccc(C(=O)CS(C)(=O)=O)cc1`, the Kd was > 4 mM (inactive). For `NC(Cc1c[nH]c2ccccc12)C(=O)O` (stereo unspecified), the Kd was > 4 mM (inactive). In the case of `Nc1ccc2[nH]ncc2c1`, the Kd is reported as > 4 mM (inactive). With `Nc1nc(N)nc(N2C(=O)c3ccccc3C2=O)n1` the Kd was > 4 mM (inactive). For `NC(=O)C1CCN(C(=O)c2ccccc2)CC1`, the Kd was > 4 mM (inactive). For `S=C(NCc1cccnc1)NC1CC1`, the Kd was > 4 mM (inactive). `O=c1[nH]c2sc3c(c2c2ncnn12)CCCC3` was tested, and the Kd was > 4 mM (inactive). For `CCNC(=O)CC1Nc2ccccc2NC1=O` (stereo unspecified), the Kd was > 4 mM (inactive). `c1ccc2[nH]c(-c3cscn3)nc2c1` was tested, and the Kd was > 4 mM (inactive). For `Cc1cccc(-c2nnc(-c3ccc(N)cc3)o2)c1`, the Kd was > 4 mM (inactive). With `c1ccc2c(c1)nnn2C1CCNCC1` the Kd was > 4 mM (inactive). `O=C(Nc1ccc2c(c1)OCCO2)c1c(F)cccc1F` was tested, and the Kd was > 4 mM (inactive). For `Cc1cc(=O)[nH]c(NCc2cccnc2)n1`, the Kd was > 4 mM (inactive). With `Nc1cccc(-c2cnco2)c1` the Kd was > 4 mM (inactive). `O=C(NCc1ccccc1Br)c1ccco1` was tested, and the Kd was > 4 mM (inactive). With `CC(=O)NC(O)C(=O)c1ccccc1` (stereo unspecified) the Kd was > 4 mM (inactive). With `S=C(Nc1ccc2nccnc2c1)N1CCOCC1` the Kd was > 4 mM (inactive). In the case of `O=C(c1cccnc1Cl)N1CCOCC1`, the Kd is reported as > 4 mM (inactive). For `C=CCn1c(=S)[nH]c2ccc(Br)cc2c1=O`, the Kd was > 4 mM (inactive). For `O=C1NC(=S)N/C1=C/c1ccsc1`, the Kd was > 4 mM (inactive). For `NCCc1c[nH]c2ccccc12`, the Kd was > 4 mM (inactive). In the case of `O=c1[nH]nnc2sc3c(c12)CCCC3`, the Kd is reported as > 4 mM (inactive). With `COc1ccc(-c2c(C)n([O-])c(C)c(C)[n+]2=O)cc1` the Kd was > 4 mM (inactive). For `Nc1ccc2sccc2c1`, the Kd was > 4 mM (inactive). With `O[C@H]1C=C2CCN3Cc4cc5c(cc4C(C23)[C@@H]1O)OCO5` (stereo partly specified) the Kd was > 4 mM (inactive). `Nc1c(F)c(F)nc(F)c1F` was tested, and the Kd was > 4 mM (inactive). For `Cc1cccc(C)c1NC(=O)/C=C/C(=O)O`, the Kd was > 4 mM (inactive). `CCOc1nc(C)ccc1-c1noc(-c2ccco2)n1` was tested, and the Kd was > 4 mM (inactive). For `Cc1[nH]c(=O)[nH]c(=O)c1N1CCOCC1`, the Kd was > 4 mM (inactive). In the case of `CCCn1c(S(=O)(=O)O)nc2ccccc21`, the Kd is reported as > 4 mM (inactive). With `Cc1nc2ccc(C(=O)N3CCSCC3)cc2s1` the Kd was > 4 mM (inactive). With `COC(=O)c1noc(-c2ccc(OC)cc2)n1` the Kd was > 4 mM (inactive). `COc1ccc(C(=O)/C=C/c2ccccc2)cc1` was tested, and the Kd was > 4 mM (inactive). In the case of `COc1cc2nc[nH]c(=O)c2cc1OC`, the Kd is reported as > 4 mM (inactive). With `Nc1nnc(C(F)(F)F)s1` the Kd was > 4 mM (inactive). With `Cc1ccc(C)n1NC(=O)c1cccs1` the Kd was > 4 mM (inactive). With `CCc1ccc(/C=N/n2cnnc2)cc1` the Kd was > 4 mM (inactive). `O=c1cc(-c2ccc(O)cc2)oc2cc(O[C@@H]3O[C@H](CO)[C@@H](O)[C@H](O)[C@H]3O[C@@H]3OC[C@](O)(CO)[C@H]3O)cc(O)c12` was tested, and the Kd was > 4 mM (inactive). `Cc1ccccc1-n1c(N)cc(=O)[nH]c1=S` was tested, and the Kd was > 4 mM (inactive). In the case of `NS(=O)(=O)c1ccc(N=Cc2ccc[nH]2)cc1`, the Kd is reported as > 4 mM (inactive). With `CNC(=O)C(=O)Nc1cccc(Cl)c1` the Kd was > 4 mM (inactive). `Cn1cnc2nc3n(c2c1=O)CCC3` was tested, and the Kd was > 4 mM (inactive). In the case of `CC(=O)NS(=O)(=O)c1ccc(C)cc1`, the Kd is reported as > 4 mM (inactive). With `CC1(C)C=Cc2c(cc3occ(-c4ccc5c(c4)OCO5)c(=O)c3c2O)O1` the Kd was > 4 mM (inactive). For `O=c1c2ccccc2nc(-c2ccco2)n1-c1nccs1`, the Kd was > 4 mM (inactive). `Cc1nc(SCC(=O)c2c[nH]c3ccccc23)n[nH]1` was tested, and the Kd was > 4 mM (inactive). With `O=C1C2CCCCC2C(=O)N1c1ccc(O)cc1` (stereo unspecified) the Kd was > 4 mM (inactive).
